Test results: publication PMC13485499, “Neoliensinine promotes lysosomal cell death in T cell malignancies via a novel STING-TUBA1B pathway” (Genes & Diseases, 2025)

Molecular target: T1, Stimulator of interferon genes (STING) (Homo sapiens, UniProt Q86WV6)
T1 construct: gene STING1
Experiment: DARTS in Jurkat and Hut102 cell lysates ([…]); weaker than NeoL
Assay type: cell-based

T1 sequence (Q86WV6 whole entry): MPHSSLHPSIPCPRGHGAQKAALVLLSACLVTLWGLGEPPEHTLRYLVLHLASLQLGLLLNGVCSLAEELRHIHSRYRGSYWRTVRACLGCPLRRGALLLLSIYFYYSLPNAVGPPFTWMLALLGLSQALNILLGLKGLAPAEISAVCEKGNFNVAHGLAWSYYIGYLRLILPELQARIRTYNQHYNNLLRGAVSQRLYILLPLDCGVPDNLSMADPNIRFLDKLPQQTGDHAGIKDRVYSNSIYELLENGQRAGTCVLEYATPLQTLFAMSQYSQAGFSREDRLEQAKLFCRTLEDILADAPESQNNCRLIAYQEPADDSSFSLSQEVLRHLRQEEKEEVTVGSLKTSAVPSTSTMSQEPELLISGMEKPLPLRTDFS

COc1ccc(C[C@@H]2c3cc(Oc4cc(C[C@@H]5c6cc(O)c(OC)cc6CCN5C)ccc4O)c(OC)cc3CCN2C)cc1 [IsoL, isoliensinine]
DARTS in Jurkat and Hut102 cell lysates (80 μmol/L); weaker than NeoL: incubation with NeoL and IsoL led to increased STING in the Jurkat and Hut102 cell lysates
